Where only a bound is given, the exact number is not on record here.

Test [1] concerns MEK1/2 phosphorylation in human colon cancer cell HT-29. Nature of the test: Colon cancer cell HT-29 intracellular MEK phosphorylation inhibitory activity in vitro. The test is classed as cell-based. The following applies: HT-29 cells; for IC50: 2 hrs treatment, phosphorylated MEK1/2 Western blot; for inhibition at 0.5 µM: MEK1/2 protein phosphorylation, compound 0.5 μM, read-out: Inhibitory rate (%) at 0.5 μM. The method, then: 500 μL of a cell suspension of human colon cancer cell HT-29 (purchased from American Type Culture Collection (ATCC)) was plated in a 48-well plate (100,000 cells/well), and the cells were cultured overnight at 37° C. in the presence of 5% CO2, treated with a test compound (250 μL/well) diluted in 3-fold dilution series and cultured for 2 hrs. After 2 hrs, the culture medium containing the test compound was removed, and the cells were lysed with SDS sample buffer (100 μL/well) and heated at 95° C. for 5 min. Thereafter, the cells lysed with SDS sample buffer were applied to SDS-PAGE, and the protein was transferred onto Sequi-Blot™ PVDF Membrane (Bio-Rad) by the Western blot method. The PDVF membrane was blocked with a Block-Ace solution (Snow Brand Milk Products Co., Ltd) dissolved in phosphate buffered saline (MP Biochemicals) to 5% W/V, and reacted overnight with anti-phosphorylated MEK1/2 (Ser217/221) (Cell signaling #9121) diluted 1000-fold with phosphate buffered saline containing 0.4% Block-Ace. The membrane was washed with phosphate buffered saline containing 0.1% Tween 20 (Wako Pure Chemical Industries, Ltd.), and reacted at room temperature for 1 hr with HRP labeled rabbit IgG polyclonal antibody (Cell signaling #7074) diluted 1000-fold with phosphate buffered saline containing 0.4% Block-Ace. The membrane was washed in the same manner as above, chemical luminescence of a phosphorylated MEK1/2 protein labeled with the antibody, which was caused by ECL-plus Detection Reagent (Amersham bioscience), was detected by Luminescent Image Analyzer LAS-1000 (FUJIFILM Corporation). Taking the luminescence of the control group free of the test compound as 100%, the concentration (IC50 value) of the compound necessary for inhibiting the residual luminescence to 50% of the control group was calculated. In addition, MEK1/2 protein phosphorylation inhibitory rate (%) of the test compound at compound concentration 0.5 μM was calculated by the following formula. The results are shown in Table 2-B. Inhibitory rate (%)=(1−(luminescence of test compound−blank)÷(luminescence of control group−blank))×100

Test [2] concerns phosphorylated ERK1/2 in A-375 tumor. Nature of the test: Intratumor phosphorylated ERK inhibitory activity in malignant melanoma cell A-375 cancer-bearing rat. The class given is in vivo. The following applies: phosphorylated ERK1/2 in A-375 tumor of nude rat, 25 mg/kg oral, 4 hrs after administration. The method, then:
Human malignant melanoma cell A-375 (purchased from ATCC) was transplanted into 5-week-old nude rat (F344/N Jcl-mu/mu female (CLEA Japan, Inc.)) at 1.0×10^7 cells by subcutaneous injection. After 2-5 weeks from the transplantation, a test compound dissolved in 5% DMSO, 10% Cremophor, 20% PEG-400 and 65% distilled water was orally administered to rats having an engrafted tumor with a tumor volume of 200-800 mm^3 at a dose of 25 mg/kg body weight. After 4 hrs from the administration of the test compound, the tumor was collected under ether anesthesia and the tumor was homogenized in RIPA buffer (1% NP-40, 0.5% sodium deoxycholate, 1% SDS, 97.5% DPBS (GIBCO) with Protease Inhibitor Cocktail Set 3 (calbiochem) and Phosphatase Inhibitor Cocktail 2 (Sigma)). The protein in the tumor lysate was quantified using BCA Protein assay kit (Thermo), and the protein amount in the tumor lysate was adjusted to 1.25 μg/μL. 2×SDS sample buffer was added to the above-mentioned protein solution and the mixture was treated at 95° C. for 5 min.
Thereafter, SDS-PAGE was performed and the protein was transferred onto Sequi-Blot PVDF Membrane (Bio-Rad) by the Western blot method. The membrane was blocked with 5% (w/v) Block-Ace solution dissolved in phosphate buffered saline and reacted overnight with anti-phosphorylated ERK1/2 (Thr202/Tyr204) (Cell Signaling #9101) diluted 1000-fold with phosphate buffered saline containing 0.4% (w/v) Block-Ace. The membrane was washed with phosphate buffered saline containing 0.1% Tween20 (Wako Pure Chemical Industries, Ltd.), and reacted with HRP-labeled rabbit IgG polyclonal antibody (Cell Signaling #7074) diluted 1000-fold with phosphate buffered saline containing 0.4% Block-Ace for 1 hr at room temperature. […]
(Amersham Biosciences), and detected with luminoimage analyzer LAS-1000 (Fuji Film). The phosphorylated ERK1/2 protein inhibitory rate (%) of the test compound was calculated by the following formula. Inhibitory rate (%)=(1−(luminescence of test compound−blank)÷(luminescence of control group−blank))×100

Test [3] relates to human colon cancer cell HT-29. Nature of the test: Colon cancer cell HT-29 growth suppressive activity in vitro. The class given is cell-based. The procedure: 100 μL of a cell suspension (3,000 cells/well) of human colon cancer cell HT-29 (purchased from ATCC) was plated in a 96-well plate, and the cells were cultured at 37° C. in the presence of 5% CO2. The next day, 100 μL of culture medium containing each test compound diluted in 2-fold dilution was added, and the cells were cultured for 3 days. The culture medium containing the test compound was removed, and the cells were washed with phosphate buffered saline (MP Biochemicals). A 50% trichloroacetic acid solution was added to the final concentration of 10% (v/v), and the mixture was stood overnight at 4° C., whereby the cells were fixed to the plate. Then, a dye SRB 0.4% (w/v) solution (dissolved in 1% acetic acid) was added at 50 μl/well, whereby the cell protein was fixed and stained (Skehan et al., Journal Of National Cancer Institute, vol. 82, pp. 1107-1112, 1990). The cells were washed 3 times with 1% acetic acid solution (200 μL/well), and 100 μL of an extract (10 mM Tris buffer) was added to extract the dye. The absorbance at an absorption wavelength 550 nm was measured, and cell amount was measured as a protein amount. Taking the protein amount of the control group free of the test compound solution as 100%, the proportion of the residual protein amount of each treatment group was determined and the concentration of the compound necessary for suppressing the residual cell amount to 50% of the control (IC50 value) was calculated. In addition, cell proliferation inhibitory rate (%) of the test compound at compound concentration 10 μM was calculated by the following formula. The results are shown in Table 3-B. Inhibitory rate (%)=(1−(absorbance of test compound−blank)÷(absorbance of control group−blank))×100

With `CC(C)(C#N)c1cccc(C(=O)Nc2cccc(Oc3ccc4nc(NC(=O)C5CC5)sc4c3C#N)c2)c1Cl` [Example 3, 2-chloro-N-[3-({7-cyano-2-[(cyclopropylcarbonyl)amino]-1,3-benzothiazol-6-yl}oxy)phenyl]-3-(1-cyano-1-methylethyl)benzamide], in test [1], the IC50 (as a rule, the midpoint of a concentration-inhibition curve) was < 300 nM and the inhibition at 0.5 µM stood at 86%. For the same compound, in test [2], the “Inhibitory rate (%)” value came out at 71%.
For `N#Cc1c(Oc2cccc(NC(=O)Cc3cccc(C(F)(F)F)c3)c2)ccc2nc(NC(=O)C3CC3)sc12` [Example 50, N-{7-cyano-6-[3-({[3-(trifluoromethyl)phenyl]acetyl}amino)phenoxy]-1,3-benzothiazol-2-yl}cyclopropanecarboxamide], the IC50 in test [3] (72 h, HT-29 cells, 3 days culture, SRB staining) is < 500 nM. The inhibition at 10 µM in test [3] (HT-29 cell proliferation, compound 10 μM, read-out: Inhibitory rate (%) at 10 μM) stood at 91%. Also, in test [2], the “Inhibitory rate (%)” value amounted to 76%.
Take `N#Cc1c(Oc2ccc(F)c(NC(=O)Cc3cccc(C(F)(F)F)c3)c2)ccc2nc(NC(=O)C3CC3)sc12` [Example 53, N-{7-cyano-6-[4-fluoro-3-({[3-(trifluoromethyl)phenyl]acetyl}amino)phenoxy]-1,3-benzothiazol-2-yl}cyclopropanecarboxamide]: in test [1], the IC50 is < 300 nM and the inhibition at 0.5 µM was 79%. Moreover, in test [2], the “Inhibitory rate (%)” value was 88%.

Values taken from patent US8497274B2, “Heterocyclic compound and use thereof” (Takeda Pharmaceutical Company Limited, priority 2008, dated 2013).
